Experimental data taken from the supplement of paper PMC4862054.

system: HCC1143; experiment: normalised response (% of control), CellTiter-Glo; higher = more viable cells (100 = DMSO, 0 = benzethonium chloride kill control); settings: incubation time: 72 h
Procedure, shortened: (§1)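 A 20 µl suspension of breast cancer cells was seeded into each well of 384-well plates containing compound at 5 concentrations in 10-fold steps over a compound-specific 10,000-fold range. After 72 h incubation, CellTox Green fluorescence (485/520 nm) was read first, and CellTiter-Glo luminescence was read after 10 min at room temperature. Each plate was normalised against 0.1 % DMSO (100) and a positive kill control (0), and each value is the normalised signal at one concentration.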

Going from CC(C)n1nc(-c2ccc3oc(N)nc3c2)c2c(N)ncnc21 [INK128] (1 nM) to NC1(c2ccc(-c3nc4ccn5c(=O)[nH]nc5c4cc3-c3ccccc3)cc2)CCC1 [MK-2206] (1 nM), the normalised response rises from 94.5% to 103%.

First: O=NN(CCCl)C(=O)NC1CCCCC1 [Lomustine] (10 nM)
Second: N[C@@H](Cc1ccc(N(CCCl)CCCl)cc1)C(=O)O [Melphalan] (1.25 nM)
The normalised response of the first is higher: 103% for the first, 98.7% for the second.

Compared with O=C(O)CC[C@H]1CC[C@@](c2cc(F)ccc2F)(S(=O)(=O)c2ccc(Cl)cc2)CC1 [MK-0752] (1 nM), O=C(c1cc(Cc2n[nH]c(=O)c3ccccc23)ccc1F)N1CCN(C(=O)C2CC2)CC1 [Olaparib] (10 nM) is lower in normalised response: 99.5% for the first, 95.6% for the second.

Going from NC(=O)c1cccc2cn(-c3ccc([C@@H]4CCCNC4)cc3)nc12 [MK-4827] (10 nM) to N[C@@H](Cc1ccc(N(CCCl)CCCl)cc1)C(=O)O [Melphalan] (12.5 nM), the normalised response falls from 107% to 95.3%.

system: CAL-148; experiment: as above; settings: incubation time: 72 h
Procedure, shortened: as §1

First: Cc1c(C(=O)Nc2ccc(N3C[C@@H](C)O[C@@H](C)C3)nc2)cccc1-c1ccc(OC(F)(F)F)cc1 [Erismodegib] (1 nM)
Second: COc1cc2c(Oc3ccc(NC(=O)C4(C(=O)Nc5ccc(F)cc5)CC4)cc3F)ccnc2cc1OCCCN1CCOCC1 [Foretinib] (1 nM)
The normalised response of the first is lower: 91.7% for the first, 101% for the second.

Going from Cc1c(C(=O)Nc2ccc(N3C[C@@H](C)O[C@@H](C)C3)nc2)cccc1-c1ccc(OC(F)(F)F)cc1 [Erismodegib] (10 nM) to NC1(c2ccc(-c3nc4ccn5c(=O)[nH]nc5c4cc3-c3ccccc3)cc2)CCC1 [MK-2206] (1 nM), the normalised response rises from 94.6% to 112%.

Compared with CC(C)C(=O)Nc1ccc([N+](=O)[O-])c(C(F)(F)F)c1 [Flutamide] (10 nM), O=C(O)CC[C@H]1CC[C@@](c2cc(F)ccc2F)(S(=O)(=O)c2ccc(Cl)cc2)CC1 [MK-0752] (1 nM) is higher in normalised response: 92.1% for the first, 107% for the second.

Compared with COc1cc(Nc2ncc(F)c(Nc3ccc4c(n3)N(COP(=O)(O)O)C(=O)C(C)(C)O4)n2)cc(OC)c1OC [Fostamatinib] (0.25 nM), COc1cc2c(cc1-c1c(C)noc1C)ncc1[nH]c(=O)n([C@H](C)c3ccccn3)c12 [I-BET151] (1 nM) is higher in normalised response: 93.3% for the first, 104% for the second.

Going from COc1cc(Nc2ncc(F)c(Nc3ccc4c(n3)N(COP(=O)(O)O)C(=O)C(C)(C)O4)n2)cc(OC)c1OC [Fostamatinib] (2.5 nM) to CCCc1cc(C)[nH]c(=O)c1CNC(=O)c1cc(-c2ccnc(N3CCN(C)CC3)c2)cc2c1cnn2C(C)C [GSK343] (1 nM), the normalised response falls from 97.7% to 84.4%.

Going from CC(C)NC[C@@H](C(=O)N1CCN(c2ncnc3c2[C@H](C)C[C@H]3O)CC1)c1ccc(Cl)cc1 [GDC-0068] (1 nM) to O=C(c1cc(Cc2n[nH]c(=O)c3ccccc23)ccc1F)N1CCN(C(=O)C2CC2)CC1 [Olaparib] (10 nM), the normalised response rises from 95.3% to 98.9%.

First: CCCc1cc(C)[nH]c(=O)c1CNC(=O)c1cc(-c2ccnc(N3CCN(C)CC3)c2)cc2c1cnn2C(C)C [GSK343] (10 nM)
Second: CC(C)n1nc(-c2ccc3oc(N)nc3c2)c2c(N)ncnc21 [INK128] (0.1 nM)
The normalised response of the first is lower: 80.2% for the first, 92.2% for the second.

First: NC(=O)NO [Hydroxyurea] (100 nM)
Second: N[C@@H](Cc1ccc(N(CCCl)CCCl)cc1)C(=O)O [Melphalan] (1.25 nM)
The normalised response of the first is higher: 102% for the first, 93.2% for the second.

First: CC(C)n1nc(-c2ccc3oc(N)nc3c2)c2c(N)ncnc21 [INK128] (1 nM)
Second: NC(=O)c1cccc2cn(-c3ccc([C@@H]4CCCNC4)cc3)nc12 [MK-4827] (10 nM)
The normalised response of the first is lower: 93.2% for the first, 108% for the second.

First: O=NN(CCCl)C(=O)NC1CCCCC1 [Lomustine] (10 nM)
Second: N[C@@H](Cc1ccc(N(CCCl)CCCl)cc1)C(=O)O [Melphalan] (12.5 nM)
The normalised response of the first is higher: 98.6% for the first, 96.2% for the second.

system: CAL-85-1; experiment: as above; settings: incubation time: 72 h
Procedure, shortened: as §1

First: Cc1c(C(=O)Nc2ccc(N3C[C@@H](C)O[C@@H](C)C3)nc2)cccc1-c1ccc(OC(F)(F)F)cc1 [Erismodegib] (1 nM)
Second: COc1cc2c(Oc3ccc(NC(=O)C4(C(=O)Nc5ccc(F)cc5)CC4)cc3F)ccnc2cc1OCCCN1CCOCC1 [Foretinib] (1 nM)
The normalised response of the first is higher: 97.8% for the first, 94.8% for the second.

Going from Cc1c(C(=O)Nc2ccc(N3C[C@@H](C)O[C@@H](C)C3)nc2)cccc1-c1ccc(OC(F)(F)F)cc1 [Erismodegib] (10 nM) to NC1(c2ccc(-c3nc4ccn5c(=O)[nH]nc5c4cc3-c3ccccc3)cc2)CCC1 [MK-2206] (1 nM), the normalised response rises from 95.2% to 95.9%.

First: CC(C)C(=O)Nc1ccc([N+](=O)[O-])c(C(F)(F)F)c1 [Flutamide] (10 nM)
Second: O=C(O)CC[C@H]1CC[C@@](c2cc(F)ccc2F)(S(=O)(=O)c2ccc(Cl)cc2)CC1 [MK-0752] (1 nM)
The normalised response of the first is lower: 96.2% for the first, 102% for the second.

Going from COc1cc(Nc2ncc(F)c(Nc3ccc4c(n3)N(COP(=O)(O)O)C(=O)C(C)(C)O4)n2)cc(OC)c1OC [Fostamatinib] (0.25 nM) to COc1cc2c(cc1-c1c(C)noc1C)ncc1[nH]c(=O)n([C@H](C)c3ccccn3)c12 [I-BET151] (1 nM), the normalised response rises from 99.3% to 103%.

Compared with COc1cc(Nc2ncc(F)c(Nc3ccc4c(n3)N(COP(=O)(O)O)C(=O)C(C)(C)O4)n2)cc(OC)c1OC [Fostamatinib] (2.5 nM), CCCc1cc(C)[nH]c(=O)c1CNC(=O)c1cc(-c2ccnc(N3CCN(C)CC3)c2)cc2c1cnn2C(C)C [GSK343] (1 nM) is higher in normalised response: 99.7% for the first, 102% for the second.

Going from CC(C)NC[C@@H](C(=O)N1CCN(c2ncnc3c2[C@H](C)C[C@H]3O)CC1)c1ccc(Cl)cc1 [GDC-0068] (1 nM) to O=C(c1cc(Cc2n[nH]c(=O)c3ccccc23)ccc1F)N1CCN(C(=O)C2CC2)CC1 [Olaparib] (10 nM), the normalised response rises from 98.9% to 108%.

Going from CCCc1cc(C)[nH]c(=O)c1CNC(=O)c1cc(-c2ccnc(N3CCN(C)CC3)c2)cc2c1cnn2C(C)C [GSK343] (10 nM) to CC(C)n1nc(-c2ccc3oc(N)nc3c2)c2c(N)ncnc21 [INK128] (0.1 nM), the normalised response rises from 91.6% to 96.6%.

Compared with NC(=O)NO [Hydroxyurea] (100 nM), N[C@@H](Cc1ccc(N(CCCl)CCCl)cc1)C(=O)O [Melphalan] (1.25 nM) is lower in normalised response: 99.8% for the first, 96.5% for the second.

Compared with CC(C)n1nc(-c2ccc3oc(N)nc3c2)c2c(N)ncnc21 [INK128] (1 nM), NC(=O)c1cccc2cn(-c3ccc([C@@H]4CCCNC4)cc3)nc12 [MK-4827] (10 nM) is higher in normalised response: 96.7% for the first, 106% for the second.

Going from O=NN(CCCl)C(=O)NC1CCCCC1 [Lomustine] (10 nM) to N[C@@H](Cc1ccc(N(CCCl)CCCl)cc1)C(=O)O [Melphalan] (12.5 nM), the normalised response rises from 95% to 99.4%.
